According to patent US6376553B1, “Treatment of pain” (Knoll Pharmaceutical Company, priority 1999, dated 2002):
pKi: −log10 of the molar value.

Target: [3H]Noradenaline reuptake (Rattus norvegicus, UniProt Q9WTR4)
Assay: biochemical

[3H]Noradenaline reuptake, sequence (Q9WTR4 1-597): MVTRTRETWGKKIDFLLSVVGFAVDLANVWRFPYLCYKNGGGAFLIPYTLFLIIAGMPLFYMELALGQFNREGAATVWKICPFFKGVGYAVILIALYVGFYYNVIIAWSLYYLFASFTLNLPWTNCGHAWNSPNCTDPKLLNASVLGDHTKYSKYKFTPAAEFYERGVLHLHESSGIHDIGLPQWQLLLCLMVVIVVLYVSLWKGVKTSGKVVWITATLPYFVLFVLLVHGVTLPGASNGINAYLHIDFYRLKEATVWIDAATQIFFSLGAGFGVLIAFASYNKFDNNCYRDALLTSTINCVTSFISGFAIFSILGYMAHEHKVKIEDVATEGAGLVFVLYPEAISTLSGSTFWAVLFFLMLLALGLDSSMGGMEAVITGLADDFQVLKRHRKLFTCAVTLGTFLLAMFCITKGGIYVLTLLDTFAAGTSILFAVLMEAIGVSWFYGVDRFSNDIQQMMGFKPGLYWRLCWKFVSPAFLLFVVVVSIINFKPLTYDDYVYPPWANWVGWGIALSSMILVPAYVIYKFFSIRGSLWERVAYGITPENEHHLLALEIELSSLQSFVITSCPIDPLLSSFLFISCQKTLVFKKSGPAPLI

In the case of CC(NC(C)(C)C)C(=O)c1cccc(Cl)c1 (stereo not shown) [Bupropion], the pKi was 5.59.
